Measurements reported in PubChem BioAssay (NCI).
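These data come from cells grown in 96-well plates and exposed to compound for 48 hours at five concentrations. TGI: concentration producing complete growth inhibition.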

What was measured:
Experiment in all cases: inhibition of tumour cell growth, NCI panel, 48 h
[1] = test system: HT29 colon
[2] = test system: OVCAR-5 ovarian
[3] = test system: CCRF-CEM leukemia
[4] = test system: HCT-15 colon
[5] = test system: SK-MEL-2 melanoma
[6] = test system: M19-MEL melanoma
[7] = test system: ACHN renal
[8] = test system: TK-10 renal
[9] = test system: MOLT-4 leukemia
[10] = test system: U251 CNS
[11] = test system: LOX IMVI melanoma
[12] = test system: M14 melanoma
[13] = test system: RXF 393 renal
[14] = test system: DLD-1 colon
[15] = test system: OVCAR-3 ovarian
[16] = test system: HOP-62 NSCLC
[17] = test system: LXFL 529 NSCLC
[18] = test system: COLO 205 colon
[19] = test system: HCT-116 colon
[20] = test system: SNB-78 CNS
[21] = test system: SN12C renal
[22] = test system: CAKI-1 renal
[23] = test system: SF-295 CNS
[24] = test system: SF-268 CNS
[25] = test system: SK-OV-3 ovarian
[26] = test system: DMS 114 small cell lung
[27] = test system: SNB-19 CNS
[28] = test system: NCI-H226 lung
[29] = test system: UACC-62 melanoma
[30] = test system: IGROV1 ovarian
[31] = test system: EKVX NSCLC
[32] = test system: OVCAR-8 ovarian
[33] = test system: A549 NSCLC
[34] = test system: RPMI-8226 leukemia
[35] = test system: HOP-18 NSCLC
[36] = test system: XF 498 CNS
[37] = test system: UO-31 renal
[38] = test system: HL-60(TB) leukemia
[39] = test system: RXF-631 renal
[40] = test system: HCC-2998 colon
[41] = test system: UACC-257 melanoma
[42] = test system: NCI-H23 lung
[43] = test system: 786-0 renal
[44] = test system: OVCAR-4 ovarian
[45] = test system: SR leukemia
[46] = test system: K-562 leukemia
[47] = test system: MALME-3M melanoma
[48] = test system: SK-MEL-28 melanoma
[49] = test system: SW-620 colon
[50] = test system: SF-539 CNS
[51] = test system: NCI-H460 lung
[52] = test system: KM20L2 colon
[53] = test system: KM12 colon
[54] = test system: A498 renal
[55] = test system: SNB-75 CNS
[56] = test system: NCI-H522 lung
[57] = test system: PC-3 prostate
[58] = test system: MCF7 breast
[59] = test system: NCI/ADR-RES ovarian
[60] = test system: HS 578T breast
[61] = test system: MDA-N
[62] = test system: SK-MEL-5 melanoma
[63] = test system: BT-549 breast
[64] = test system: MDA-MB-435
[65] = test system: HOP-92 NSCLC
[66] = test system: DU-145 prostate

COc1ccc(/C=C/C(=O)c2sc(NC(=S)NC(=O)c3ccc(Cl)cc3)nc2C)cc1OC
TGI [1]: > 100 µM
TGI [2]: > 100 µM
TGI [3]: 88.1 µM
TGI [4]: > 100 µM
TGI [5]: > 100 µM
TGI [6]: > 100 µM
TGI [7]: > 100 µM
TGI [8]: > 100 µM
TGI [9]: > 100 µM
TGI [10]: > 100 µM
TGI [11]: > 100 µM
TGI [12]: > 100 µM
TGI [13]: > 100 µM
TGI [14]: > 100 µM
TGI [15]: > 100 µM
TGI [16]: > 100 µM
TGI [17]: > 100 µM
TGI [18]: > 100 µM
TGI [19]: > 100 µM
TGI [20]: > 100 µM
TGI [21]: > 100 µM
TGI [22]: > 100 µM
TGI [23]: > 100 µM
TGI [24]: > 100 µM
TGI [25]: > 100 µM
TGI [26]: > 100 µM
TGI [27]: > 100 µM
TGI [28]: > 100 µM
TGI [29]: 39.5 µM
TGI [30]: > 100 µM
TGI [31]: > 100 µM
TGI [32]: > 100 µM
TGI [33]: > 100 µM
TGI [34]: 62 µM
TGI [35]: > 100 µM
TGI [36]: > 100 µM
TGI [37]: > 100 µM
TGI [38]: > 100 µM
TGI [39]: > 100 µM
TGI [40]: > 100 µM
TGI [41]: > 100 µM
TGI [42]: > 100 µM
TGI [43]: > 100 µM
TGI [44]: > 100 µM
TGI [45]: > 100 µM
TGI [46]: 96.8 µM
TGI [47]: > 100 µM
TGI [48]: > 100 µM
TGI [49]: > 100 µM
TGI [50]: > 100 µM
TGI [51]: > 100 µM
TGI [52]: > 100 µM
TGI [53]: > 100 µM

N#CNC(=NCCO)NCCO
TGI [1]: > 100 µM
TGI [2]: > 100 µM
TGI [3]: > 100 µM
TGI [4]: > 100 µM
TGI [5]: > 100 µM
TGI [6]: > 100 µM
TGI [7]: > 100 µM
TGI [9]: > 100 µM
TGI [10]: > 100 µM
TGI [11]: > 100 µM
TGI [12]: > 100 µM
TGI [14]: > 100 µM
TGI [15]: > 100 µM
TGI [16]: > 100 µM
TGI [17]: > 100 µM
TGI [18]: > 100 µM
TGI [19]: > 100 µM
TGI [20]: > 100 µM
TGI [21]: > 100 µM
TGI [22]: > 100 µM
TGI [23]: > 100 µM
TGI [24]: > 100 µM
TGI [25]: > 100 µM
TGI [26]: > 100 µM
TGI [54]: > 100 µM
TGI [27]: > 100 µM
TGI [28]: > 100 µM
TGI [29]: > 100 µM
TGI [30]: > 100 µM
TGI [31]: > 100 µM
TGI [32]: > 100 µM
TGI [33]: > 100 µM
TGI [34]: > 100 µM
TGI [35]: > 100 µM
TGI [36]: > 100 µM
TGI [37]: > 100 µM
TGI [55]: > 100 µM
TGI [38]: > 100 µM
TGI [56]: > 100 µM
TGI [39]: > 100 µM
TGI [40]: > 100 µM
TGI [41]: > 100 µM
TGI [44]: > 100 µM
TGI [45]: > 100 µM
TGI [47]: > 100 µM
TGI [48]: > 100 µM
TGI [49]: > 100 µM
TGI [50]: > 100 µM
TGI [51]: > 100 µM
TGI [52]: > 100 µM
TGI [53]: > 100 µM

COc1ccc(/C=C2\CCC(CN3CCOCC3)C2=O)cc1 (centres undefined)
TGI [1]: 5.73 µM
TGI [2]: 19.5 µM
TGI [3]: > 21.3 µM
TGI [4]: 6.2 µM
TGI [5]: 9.66 µM
TGI [6]: 30.5 µM
TGI [7]: 11.7 µM
TGI [8]: 9.64 µM
TGI [9]: 6.29 µM
TGI [57]: 11.7 µM
TGI [10]: 31.2 µM
TGI [11]: 10.1 µM
TGI [12]: 5.26 µM
TGI [58]: 9.58 µM
TGI [13]: 3.12 µM
TGI [14]: 24.8 µM
TGI [15]: 9.36 µM
TGI [16]: 33.3 µM
TGI [59]: 5.23 µM
TGI [17]: 3.04 µM
TGI [18]: 5.38 µM
TGI [20]: 27 µM
TGI [21]: 12.3 µM
TGI [22]: 4.15 µM
TGI [23]: 32.1 µM
TGI [60]: > 100 µM
TGI [61]: 5.83 µM
TGI [24]: 16.4 µM
TGI [25]: 30 µM
TGI [26]: 7.09 µM
TGI [62]: 12.7 µM
TGI [63]: 5.54 µM
TGI [54]: 21.4 µM
TGI [27]: 26 µM
TGI [28]: 35.5 µM
TGI [64]: 3.97 µM
TGI [29]: 24.5 µM
TGI [30]: 11.3 µM
TGI [31]: 21.1 µM
TGI [32]: 7.35 µM
TGI [33]: 20.8 µM
TGI [34]: 3.57 µM
TGI [35]: 18.3 µM
TGI [36]: 9.69 µM
TGI [37]: 15.3 µM
TGI [55]: 30.5 µM
TGI [38]: 11.2 µM
TGI [56]: 2.39 µM
TGI [39]: 43.5 µM
TGI [40]: 10.9 µM
TGI [41]: 5.94 µM
TGI [42]: 14.4 µM
TGI [43]: 3.11 µM
TGI [44]: 24.1 µM
TGI [45]: 5.97 µM
TGI [46]: 6.02 µM
TGI [47]: 6.42 µM
TGI [48]: 7.71 µM
TGI [49]: 3.86 µM
TGI [50]: 13 µM
TGI [51]: 41.3 µM
TGI [65]: 6.65 µM
TGI [66]: 4.02 µM
TGI [52]: 13.5 µM
TGI [53]: 16.2 µM
